≈ marks a conversion by molar mass, not a printed value.
Columns and labels:
VEGFR2 = target: T1, VEGFR2 (Homo sapiens, UniProt P35968); experiment: Kinase inhibitory activity, Mobility Shift Assay (VEGFR2); assay type: biochemical
T1 construct: purchased Carna 08-191
Description: (§1) Assay for Inhibitory Activity of Compounds Against VEGFR and EGFR Kinases
(§2) This assay directly monitors the inhibitory activity of compounds on kinase phosphorylation by measuring non-phosphorylated and phosphorylated substrates in the kinase reaction using Mobility Shift Assays/IMAP™ analysis. Table 2. Reagents and Instruments
(§3) Kinase and DTT were added to 1X kinase buffer to form a 2.5X kinase solution; 10 µL of the 2.5X kinase solution was transferred to a 384-well reaction plate, and 1X kinase buffer was added to the negative control wells. The plate was incubated at room temperature for 10 minutes; FAM-labeled peptide, MgCl2, ATP, and other reagents were added to 1X kinase buffer to form a 2.5X substrate solution; 10 µL of the above 2.5X substrate solution was transferred to the 384-well reaction plate; the plate was incubated at 28°C for varying times, and then 25 µL of stop solution was added to the 384-well reaction plate to terminate the reaction. Conversion rate data were read on a CaliperEZ Reader II. […] IC50 values were fitted using XLFit excel add-in version 5.4.0.8. Y = Bottom + (Top−Bottom)/(1 + […]) [formula]
(§4) X is the log value of compound concentration, Y is the inhibition rate (% inhibition).

EGFR = target: T2, EGFR (Homo sapiens, UniProt P00533); experiment: Kinase inhibitory activity, Mobility Shift Assay (EGFR); assay type: biochemical
T2 construct: purchased Carna 08-115
In short: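 Each kinase pre-incubated 10 min at room temperature, then FAM-labelled peptide with MgCl2 and ATP added; reaction at 28 °C for kinase-dependent times before stop. Substrate conversion read by mobility shift; IC50 from a four-parameter fit of % inhibition against log concentration.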

VEGFR1 = target: T3, VEGFR1 (Homo sapiens, UniProt P17948); experiment: Kinase inhibitory activity, Mobility Shift Assay (VEGFR1); assay type: biochemical
T3 construct: purchased Invitrogen PR6731B
Description: as §1, §2, §3, §4

VEGFR3 = target: T4, VEGFR3 (Homo sapiens, UniProt P35916); experiment: Kinase inhibitory activity, Mobility Shift Assay (VEGFR3); assay type: biochemical
T4 construct: purchased Invitrogen PV4129
Description: as §1, §2, §3, §4

[1] = Thermodynamic solubility test; assay type: physicochemical; conditions: buffer solution, aqueous buffer, thermodynamic from solid; thermodynamic solubility, room temperature, 8 hours shaking; buffers pH 2.0, 6.5, 7.4 used, pH of the tabulated value not given
In short: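 Samples sonicated 10 min, shaken 8 h at room temperature, re-sonicated and centrifuged at 13000 rpm for 15 min. Supernatant recentrifuged and analysed by LC-MS, with concentrations quantified against a 3–5 point calibration curve.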

melanin = experiment: Compound binding to melanin; assay type: in vitro ADME; conditions: cuttlefish (Sepia officinalis), melanin suspension (1 mg/mL), percentage of free drug (not bound to melanin), 2 µM compound, melanin 1 mg/mL in PBS pH 7.4, 37°C
In short: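 Compound at 2 µM final incubated with 1 mg/mL Sepia melanin in PBS pH 7.4, 37°C, 2 hours with shaking; blank in PBS with 0.1% BSA. Supernatant concentration by LC-MS/MS. Fb = 100 − (Ctest/Ccontrol) × 100%.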

[2] = target: T5, VEGFR2 autophosphorylation (pVEGFR2) in HUVEC cells (Homo sapiens, UniProt P35968); experiment: Inhibition of VEGF-induced VEGFR2 phosphorylation in HUVEC cells (ELISA); assay type: cell-based; conditions: 50 ng/mL human VEGF, compound 1 hour
T5 construct: endogenous in cells; host or cells: HUVEC
From the text: Assay for Compound Inhibition of VEGFR2 Phosphorylation in HUVEC Cells
VEGF is a potent growth factor that promotes angiogenesis and vascular permeability. Vascular endothelial growth factor receptor 2 (VEGFR2) is the primary receptor for VEGF-induced endothelial cell signaling. Upon ligand binding, VEGFR2 undergoes autophosphorylation and is activated. The primary function from VEGFR2 signaling is to induce blood vessel formation during development and after tissue injury, and to bypass blocked vessels. Pathologically, VEGF and VEGFR2 are involved in tumor angiogenesis and vascular leakage. They are considered major players in many different cancers and ocular diseases accompanied by pathological neovascularization. This assay uses ELISA to measure the compound's ability to inhibit VEGF-induced VEGFR2 autophosphorylation (pVEGFR2) in HUVEC cells. Table 7. Reagents and Instruments
Before cell seeding, cells reached 60%-80% confluency in cell culture flasks. The cell suspension was diluted with pre-warmed complete medium to 4.5×10^6 cells/mL. 80 microliters of cell suspension was added to all wells of a 96-well cell plate (Corning-3599); incubated overnight at 37°C and 5% CO2. Compound powder was dissolved in DMSO to 10 mM and stored in a nitrogen cabinet. Compound dilution master plate: In a 96-well V-bottom plate (Axygen- WIPP02280), reference compound Ponatinib or test compound concentrations were added, starting from 5 mM (5 microliters of 10 mM compound solution plus 5 microliters DMSO) with 3-fold serial dilutions for a total of 8 concentration points. […] 20 microliters of diluted compound was transferred from the intermediate plate to the cell plate. The cell plate was then incubated at 37°C and 5% CO2 for 1 hour. […] It was gently shaken for 30 seconds, and the absorbance was measured within 30 minutes using a SpectraMax® 340 PC 384 Absorbance Microplate Reader, reading the optical density value at 450 nm. […]
All other values are expressed as a percentage of these controls (inhibition rate). […]

[3] = Ophthalmic formulations based on polyethylene glycol series vehicles: composition and state (Example 7); assay type: physicochemical; conditions: Table 15: 10 mg/mL; Polyethylene glycol 400 10, Hydroxypropyl-β-cyclodextrin 10, Gellan Gum Gelrite 0.3, Poloxamer 188 1, Tris solution and Citric acid
From the text: In the following ophthalmic formulation preparation examples, "solution" refers to a clear, transparent liquid without visible insoluble matter. "Near-clear solution" refers to a liquid that appears close to a solution upon visual observation but may contain a small amount of insoluble particles or have a slightly opaque color. "Suspension" refers to a liquid that is visibly turbid or opaque. "Gel" refers to a completely or partially gel-like solid.
Example 7: Ophthalmic Formulations Based on Polyethylene Glycol Series Vehicles
According to the formulation composition shown in the tables below, weigh the compound powder, add it to polyethylene glycol 400, and sonicate until dissolved or nearly dissolved (heat to 50°C if necessary). Add this to a Tris-HCl buffer solution containing hydroxypropyl-β-cyclodextrin, poloxamer 188, and gellan gum (or other viscosity modifier), vortex to mix, and prepare into an eye drop formulation.

T4 sequence (P35916 25-1363): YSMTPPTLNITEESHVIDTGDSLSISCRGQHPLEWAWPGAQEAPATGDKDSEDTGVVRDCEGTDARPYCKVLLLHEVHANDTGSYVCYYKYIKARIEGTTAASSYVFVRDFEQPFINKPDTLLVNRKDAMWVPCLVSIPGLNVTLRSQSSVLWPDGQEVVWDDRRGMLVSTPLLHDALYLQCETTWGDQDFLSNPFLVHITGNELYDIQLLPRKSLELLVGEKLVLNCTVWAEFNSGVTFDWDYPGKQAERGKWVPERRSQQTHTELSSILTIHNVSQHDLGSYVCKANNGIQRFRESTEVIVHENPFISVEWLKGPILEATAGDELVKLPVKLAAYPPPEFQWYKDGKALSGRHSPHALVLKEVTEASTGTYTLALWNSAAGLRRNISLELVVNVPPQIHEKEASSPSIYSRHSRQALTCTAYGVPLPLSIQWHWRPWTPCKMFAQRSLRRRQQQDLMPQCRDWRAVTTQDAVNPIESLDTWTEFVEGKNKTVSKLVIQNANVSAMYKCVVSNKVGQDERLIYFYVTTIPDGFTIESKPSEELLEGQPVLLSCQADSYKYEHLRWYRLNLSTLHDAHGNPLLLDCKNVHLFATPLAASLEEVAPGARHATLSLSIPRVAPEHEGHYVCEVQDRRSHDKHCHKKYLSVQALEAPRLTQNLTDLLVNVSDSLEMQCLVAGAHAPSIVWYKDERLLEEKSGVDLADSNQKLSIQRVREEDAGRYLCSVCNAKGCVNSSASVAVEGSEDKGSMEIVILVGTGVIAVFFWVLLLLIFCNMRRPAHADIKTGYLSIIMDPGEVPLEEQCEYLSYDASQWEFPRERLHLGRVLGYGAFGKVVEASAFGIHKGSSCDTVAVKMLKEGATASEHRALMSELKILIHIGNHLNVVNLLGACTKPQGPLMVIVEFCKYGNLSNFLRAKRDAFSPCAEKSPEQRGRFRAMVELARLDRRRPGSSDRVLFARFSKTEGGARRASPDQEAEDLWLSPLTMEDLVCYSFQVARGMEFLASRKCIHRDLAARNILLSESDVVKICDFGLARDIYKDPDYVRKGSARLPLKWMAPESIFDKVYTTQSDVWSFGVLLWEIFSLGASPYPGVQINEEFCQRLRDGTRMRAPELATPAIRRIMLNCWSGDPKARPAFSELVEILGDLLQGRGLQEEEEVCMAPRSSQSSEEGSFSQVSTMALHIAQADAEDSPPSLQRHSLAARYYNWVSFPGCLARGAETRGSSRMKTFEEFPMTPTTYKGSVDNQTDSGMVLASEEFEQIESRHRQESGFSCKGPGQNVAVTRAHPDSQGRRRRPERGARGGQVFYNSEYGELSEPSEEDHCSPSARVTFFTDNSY
T2 sequence (P00533 25-1210): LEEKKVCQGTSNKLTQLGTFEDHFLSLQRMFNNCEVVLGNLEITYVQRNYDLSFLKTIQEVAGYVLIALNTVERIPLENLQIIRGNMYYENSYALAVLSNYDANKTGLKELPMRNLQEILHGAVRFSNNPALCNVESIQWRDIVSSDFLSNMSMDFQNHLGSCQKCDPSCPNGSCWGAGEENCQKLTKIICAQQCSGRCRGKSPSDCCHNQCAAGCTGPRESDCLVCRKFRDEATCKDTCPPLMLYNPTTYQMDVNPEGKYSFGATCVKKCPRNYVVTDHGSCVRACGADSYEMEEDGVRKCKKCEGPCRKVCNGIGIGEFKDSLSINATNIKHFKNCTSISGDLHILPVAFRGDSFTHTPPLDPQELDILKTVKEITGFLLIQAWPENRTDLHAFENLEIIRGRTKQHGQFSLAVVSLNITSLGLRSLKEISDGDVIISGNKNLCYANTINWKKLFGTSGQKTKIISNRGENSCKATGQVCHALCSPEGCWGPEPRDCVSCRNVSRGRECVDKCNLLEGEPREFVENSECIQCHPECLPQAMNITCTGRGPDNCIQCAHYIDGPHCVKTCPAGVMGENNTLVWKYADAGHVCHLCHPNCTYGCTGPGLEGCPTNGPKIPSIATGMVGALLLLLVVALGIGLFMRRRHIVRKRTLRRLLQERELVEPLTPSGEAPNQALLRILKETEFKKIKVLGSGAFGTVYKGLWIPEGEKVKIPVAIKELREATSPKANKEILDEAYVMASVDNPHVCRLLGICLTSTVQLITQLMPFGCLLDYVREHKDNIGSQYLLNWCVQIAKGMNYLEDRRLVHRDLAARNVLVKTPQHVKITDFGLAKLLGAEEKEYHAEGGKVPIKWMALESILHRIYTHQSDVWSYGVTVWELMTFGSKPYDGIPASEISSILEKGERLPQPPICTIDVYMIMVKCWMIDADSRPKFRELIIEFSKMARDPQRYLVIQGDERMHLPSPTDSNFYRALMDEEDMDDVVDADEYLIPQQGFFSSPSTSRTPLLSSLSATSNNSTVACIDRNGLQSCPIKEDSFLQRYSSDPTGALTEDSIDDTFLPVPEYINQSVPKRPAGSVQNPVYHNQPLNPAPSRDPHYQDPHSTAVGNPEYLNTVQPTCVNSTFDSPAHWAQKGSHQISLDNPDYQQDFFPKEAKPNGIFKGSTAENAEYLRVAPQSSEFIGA
T3 sequence (P17948 27-1338): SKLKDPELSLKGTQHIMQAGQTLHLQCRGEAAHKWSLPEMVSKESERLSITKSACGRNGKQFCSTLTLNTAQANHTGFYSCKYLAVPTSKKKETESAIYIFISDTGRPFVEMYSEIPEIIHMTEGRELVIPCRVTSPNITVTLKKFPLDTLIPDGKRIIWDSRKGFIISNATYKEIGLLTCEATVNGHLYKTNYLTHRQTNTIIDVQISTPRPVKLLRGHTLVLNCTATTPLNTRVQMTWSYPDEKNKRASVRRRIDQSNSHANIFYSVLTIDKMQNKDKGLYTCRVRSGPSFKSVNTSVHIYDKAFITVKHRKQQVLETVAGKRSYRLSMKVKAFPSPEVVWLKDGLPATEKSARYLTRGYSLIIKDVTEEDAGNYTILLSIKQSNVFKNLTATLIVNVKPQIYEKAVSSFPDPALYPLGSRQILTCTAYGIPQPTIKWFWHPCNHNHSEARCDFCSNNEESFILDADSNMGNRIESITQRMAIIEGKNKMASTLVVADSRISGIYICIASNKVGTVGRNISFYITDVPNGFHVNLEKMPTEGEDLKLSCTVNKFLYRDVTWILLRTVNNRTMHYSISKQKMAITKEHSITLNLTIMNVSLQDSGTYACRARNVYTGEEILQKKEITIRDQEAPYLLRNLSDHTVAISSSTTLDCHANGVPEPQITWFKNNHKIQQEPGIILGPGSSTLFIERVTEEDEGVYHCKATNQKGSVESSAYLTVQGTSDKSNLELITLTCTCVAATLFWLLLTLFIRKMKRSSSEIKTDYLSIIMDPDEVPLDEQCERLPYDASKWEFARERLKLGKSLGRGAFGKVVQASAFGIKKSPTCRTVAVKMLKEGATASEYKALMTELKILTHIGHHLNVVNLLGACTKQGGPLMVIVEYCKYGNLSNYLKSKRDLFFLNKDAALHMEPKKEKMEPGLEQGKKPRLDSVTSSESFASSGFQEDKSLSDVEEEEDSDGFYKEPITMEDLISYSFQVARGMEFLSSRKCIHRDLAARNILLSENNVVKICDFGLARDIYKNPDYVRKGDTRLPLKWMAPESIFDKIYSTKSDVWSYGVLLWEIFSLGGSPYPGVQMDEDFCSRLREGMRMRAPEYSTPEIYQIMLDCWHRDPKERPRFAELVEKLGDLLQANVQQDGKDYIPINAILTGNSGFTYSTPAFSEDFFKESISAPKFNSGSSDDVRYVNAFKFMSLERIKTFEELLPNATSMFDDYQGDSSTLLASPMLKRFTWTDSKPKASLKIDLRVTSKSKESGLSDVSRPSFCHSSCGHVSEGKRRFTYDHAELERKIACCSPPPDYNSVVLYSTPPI

Structure (SMILES)	IC50 (VEGFR2) [nM]	IC50 (EGFR) [nM]	IC50 (VEGFR1) [nM]	IC50 (VEGFR3) [nM]	solubility at 8 h [1] [µg/mL]	fraction unbound at 2 h, 2 µM (melanin)	IC50 [2] [nM]	State Description: pH [3]	State Description: state [3]
CNC(=O)c1ccccc1Sc1ccc2c(/C=C/c3ccccn3)ncn2c1 [Compound I-26, N-methyl-2-({1-[(E)-2-(pyridin-2-yl)ethenyl]imidazo[1,5-a]pyridin-6-yl}thio)benzamide]	> 100	> 60000	> 100	> 100	142 (≈ 367 µM)	0.01 to 0.05	–	–	–
CNC(=O)c1ccccc1Sc1ccn2c(/C=C/c3ccccn3)ncc2c1 [Compound I-27, N-methyl-2-({3-[(E)-2-(pyridin-2-yl)ethenyl]imidazo[1,5-a]pyridin-7-yl}thio)benzamide]	> 100	6000 to 60000	> 100	> 100	–	0.01 to 0.05	–	–	–
O=C(O)c1ccccc1Sc1ccn2c(/C=C/c3ccccn3)ncc2c1 [Compound I-28, 2-({3-[(E)-2-(pyridin-2-yl)ethenyl]imidazo[1,5-a]pyridin-7-yl}thio)benzoic acid]	> 100	≤ 600	> 100	> 100	–	> 0.05	–	–	–
CNC(=O)c1ccccc1Sc1ccc2c(cnn2-c2ccc(OCCN3CCCC3)cn2)c1 [Compound I-29, N-methyl-2-[(1-{5-[2-(pyrrolidin-1-yl)ethoxy]pyridin-2-yl}-1H-indazol-5-yl)sulfanyl]benzamide]	> 100	> 60000	> 100	> 100	–	–	–	–	–
CNC(=O)c1ccccc1Sc1ccc2c(NC(=O)NCCN3CCN(C)CC3)n[nH]c2c1 [Compound I-31]	> 100	> 60000	> 100	> 100	542 (≈ 1160 µM)	0.01 to 0.05	–	–	–

These reach a lower IC50 (VEGFR2). Values come first.

IC50 (VEGFR2) [nM]	IC50 (EGFR) [nM]	IC50 (VEGFR1) [nM]	IC50 (VEGFR3) [nM]	solubility at 8 h [1] [µg/mL]	fraction unbound at 2 h, 2 µM (melanin)	IC50 [2] [nM]	State Description: pH [3]	State Description: state [3]	Structure (SMILES)
≤ 1	6000 to 60000	≤ 1	≤ 1	14.2 (≈ 28.4 µM)	> 0.05	–	–	–	CNC(=O)c1ccccc1Sc1ccc2c(/C=C/c3ccc(OCC4CCN(C)C4)cn3)n[nH]c2c1 (stereo not drawn) [Compound I-1]
≤ 1	6000 to 60000	≤ 1	1 to 10	28.8 (≈ 57.6 µM)	0.01 to 0.05	–	–	–	CNC(=O)c1ccccc1Sc1ccc2c(/C=C/c3ccc(OCC4CCCN4C)cn3)n[nH]c2c1 (stereo not drawn) [Compound I-2, N-methyl-2-((3-((E)-2-(5-((1-methylpyrrolidin-2-yl)methoxy)pyridin-2-yl)ethenyl)-1H-indazol-6-yl)thio)benzamide]
1 to 10	6000 to 60000	≤ 1	1 to 10	294 (≈ 605 µM)	> 0.05	–	–	–	CNC(=O)c1ccccc1Sc1ccc2c(/C=C/c3ccc(OCC4CCNC4)cn3)n[nH]c2c1 (stereo not drawn) [Compound I-7]
≤ 1	6000 to 60000	≤ 1	1 to 10	–	0.01 to 0.05	–	–	–	CNC(=O)c1ccccc1Sc1ccc2c(/C=C/c3ccc(OC[C@H]4CCN(C)C4)cn3)n[nH]c2c1 [Compound I-37]
≤ 1	6000 to 60000	–	–	–	0.01 to 0.05	≤ 1	~5.5	gel	CCN(CC)CCc1ccc(/C=C/c2n[nH]c3cc(Sc4ccccc4C(=O)NC4CC4)ccc23)nc1 [Compound I-77, N-cyclopropyl-2-({3-[(E)-2-{5-[2-(diethylamino)ethyl]pyridin-2-yl}ethenyl]-1H-indazol-6-yl}sulfanyl)benzamide]
1 to 10	6000 to 60000	–	–	546 (≈ 1080 µM)	> 0.05	≤ 1	–	–	CCNC(=O)c1cc(F)ccc1Sc1ccc2c(/C=C/c3ccc(CN(CC)CC)cn3)n[nH]c2c1 [Compound I-88]
